In brackets after ≈: the same amount, converted by molar mass.

One test has as its system Acinetobacter baumannii. The test can be described thus: microbe, parasite or virus in culture. The following applies: ATCC 19606, 18 h, ASSAY_TEST Inhibition of Bacterial Growth, detection method Absorption (OD600), MEDIA CAMHB, plate type 384well, NBS, CORNING #3640.
Description: Antibacterial activity against Acinetobacter baumannii ATCC 19606 (CO-ADD:GN_034); MIC in CAMBH media using NBS plates, by OD600
With `c1cc2c(cc1C1=NN=C(NC3CC3)SC1)OCCO2`, the MIC was > 300 µM.

Take `O=C(c1ccc(Br)s1)N1CCN(c2ccccn2)CC1`: the MIC was > 300 µM.

For `CN(C)CCC(=O)c1ccc(F)cc1`, the MIC was > 300 µM.

`Clc1cccnc1N1CCC(Nc2cccnc2)CC1`: the MIC was > 300 µM.

Consider `CN(C)C(=O)CNC(=O)NCc1cc(F)ccc1Br`, for which the MIC was > 300 µM.

`N#CC(c1ccc(Br)cc1)N1CCNCC1` (stereo not drawn): the MIC is > 300 µM.

As for `Cc1cccc(S(=O)(=O)NC2CCNC2)c1Cl` (stereo not drawn), the MIC is > 300 µM.

`COc1cc(F)cc(NCC(=O)NCc2ccco2)c1`: the MIC is > 300 µM.

With `NCC1CCN(Cc2cccc(F)c2)CC1`, the MIC is > 300 µM.

Consider `CC(=O)c1ccc(NC(=O)CCc2cccs2)nc1`, for which the MIC is > 300 µM.

As for `COc1ccc(CNCCCSc2nnnn2C)cc1`, the MIC was > 300 µM.

For `NC1CSCc2c(F)cccc21` (stereo not drawn), the MIC is > 300 µM.

Turning to `Ic1nnnn1-c1ccccc1`, the MIC is > 300 µM.

Turning to `OC[C@@H]1CCCN1Cc1ccc(F)c2cccnc12`, the MIC is > 300 µM.

As for `CCS(=O)(=O)NCC(N)c1ccc(C(C)C)cc1` (stereo not drawn), the MIC is > 300 µM.

On to `CCC(C)(C)NC(=O)c1nnn(-c2ccccc2)c1C`, for which the MIC is > 300 µM.

Take `O=C(NC[C@H]1CCCN1)c1ccc2cccc(Cl)c2n1`: the MIC was > 300 µM.

With `N[C@@H]1CCCc2c(F)cc(F)cc21`, the MIC is > 300 µM.

For `NCC1Cc2ccccc21` (stereo not drawn), the MIC is > 300 µM.

Regarding `Cc1cccc(OCCc2noc(C3CNC3)n2)c1`, the MIC was > 300 µM.

Consider `CCCNc1nc(C)c(C(C)=O)s1`, for which the MIC is > 300 µM.

Regarding `CCOc1ccc(Cl)cc1CCNS(=O)(=O)N(C)C`, the MIC is > 300 µM.

Turning to `Fc1cccnc1OC1CCNCC1`, the MIC is > 300 µM.

For the molecule `NCCc1cccc2cc[nH]c12`, the MIC was > 300 µM.

Turning to `Cc1ocnc1C(=O)Nc1ccc2c(c1)NCCC2`, the MIC was > 300 µM.

`Cc1ccc(C)c2c(=O)cc(CN3CCC(N)C3)[nH]c12` (stereo not drawn): the MIC is > 300 µM.

Another test concerns Pseudomonas aeruginosa. The test can be described thus: Antibacterial activity against Pseudomonas aeruginosa PAO397 [PAO1 d(mexAB-oprM) d(mexCD-oprJ) d(mexEF-oprN) d(mexJKL) d(mexXY) d(opmH)] (CO-ADD:GN_211); MIC in CAMBH media using NBS plates, by OD(600). The class given is functional. The following applies: ASSAY_TEST Inhibition of Bacterial Growth, detection method Absorption (OD600), MEDIA CAMHB, plate type 384well, CORNING #3640, time 18 hr.
With `c1cc2c(cc1C1=NN=C(NC3CC3)SC1)OCCO2`, the MIC is > 300 µM.

As to `O=C(c1ccc(Br)s1)N1CCN(c2ccccn2)CC1`, the MIC was > 300 µM.

Consider `CN(C)CCC(=O)c1ccc(F)cc1`, for which the MIC is > 300 µM.

On to `Clc1cccnc1N1CCC(Nc2cccnc2)CC1`, for which the MIC was > 300 µM.

`CN(C)C(=O)CNC(=O)NCc1cc(F)ccc1Br`: the MIC was > 300 µM.

For the molecule `N#CC(c1ccc(Br)cc1)N1CCNCC1` (stereo not drawn), the MIC is > 300 µM.

Regarding `Cc1cccc(S(=O)(=O)NC2CCNC2)c1Cl` (stereo not drawn), the MIC is > 300 µM.

In the case of `COc1cc(F)cc(NCC(=O)NCc2ccco2)c1`, the MIC is > 300 µM.

As to `NCC1CCN(Cc2cccc(F)c2)CC1`, the MIC was > 300 µM.

`CC(=O)c1ccc(NC(=O)CCc2cccs2)nc1`: the MIC was > 300 µM.

Consider `COc1ccc(CNCCCSc2nnnn2C)cc1`, for which the MIC is > 300 µM.

`NC1CSCc2c(F)cccc21` (stereo not drawn): the MIC was > 300 µM.

For the molecule `Ic1nnnn1-c1ccccc1`, the MIC is 25 µM (≈ 6.8 µg/mL).

Regarding `OC[C@@H]1CCCN1Cc1ccc(F)c2cccnc12`, the MIC was > 300 µM.

With `CCS(=O)(=O)NCC(N)c1ccc(C(C)C)cc1` (stereo not drawn), the MIC was > 300 µM.

Consider `CCC(C)(C)NC(=O)c1nnn(-c2ccccc2)c1C`, for which the MIC was > 300 µM.

`O=C(NC[C@H]1CCCN1)c1ccc2cccc(Cl)c2n1` gave an MIC of 300 µM (≈ 86.9 µg/mL).

`N[C@@H]1CCCc2c(F)cc(F)cc21`: the MIC was > 300 µM.

As to `NCC1Cc2ccccc21` (stereo not drawn), the MIC is > 300 µM.

`Cc1cccc(OCCc2noc(C3CNC3)n2)c1` displayed an MIC of 200 µM (≈ 51.9 µg/mL).

As to `CCCNc1nc(C)c(C(C)=O)s1`, the MIC worked out at 200 µM (≈ 39.7 µg/mL).

With `CCOc1ccc(Cl)cc1CCNS(=O)(=O)N(C)C`, the MIC was > 300 µM.

Turning to `Fc1cccnc1OC1CCNCC1`, the MIC was > 300 µM.

As for `NCCc1cccc2cc[nH]c12`, the MIC was > 300 µM.

`Cc1ocnc1C(=O)Nc1ccc2c(c1)NCCC2`: the MIC is > 300 µM.

Turning to `Cc1ccc(C)c2c(=O)cc(CN3CCC(N)C3)[nH]c12` (stereo not drawn), the MIC is > 300 µM.

The test system of another test is Pseudomonas aeruginosa. The test can be described thus: microbe, parasite or virus in culture. The conditions noted are these: ATCC 27853, 18 h, ASSAY_TEST Inhibition of Bacterial Growth, detection method Absorption (OD600), MEDIA CAMHB, plate type 384well, NBS, CORNING #3640.
Description: Antibacterial activity against Pseudomonas aeruginosa ATCC 27853 (CO-ADD:GN_042); MIC in CAMBH media using NBS plates, by OD(600)
Regarding `c1cc2c(cc1C1=NN=C(NC3CC3)SC1)OCCO2`, the MIC is > 300 µM.

On to `O=C(c1ccc(Br)s1)N1CCN(c2ccccn2)CC1`, for which the MIC is > 300 µM.

With `CN(C)CCC(=O)c1ccc(F)cc1`, the MIC is > 300 µM.

On to `Clc1cccnc1N1CCC(Nc2cccnc2)CC1`, for which the MIC was > 300 µM.

Regarding `CN(C)C(=O)CNC(=O)NCc1cc(F)ccc1Br`, the MIC was > 300 µM.

In the case of `N#CC(c1ccc(Br)cc1)N1CCNCC1` (stereo not drawn), the MIC was > 300 µM.

Consider `Cc1cccc(S(=O)(=O)NC2CCNC2)c1Cl` (stereo not drawn), for which the MIC is > 300 µM.

In the case of `COc1cc(F)cc(NCC(=O)NCc2ccco2)c1`, the MIC was > 300 µM.

Take `NCC1CCN(Cc2cccc(F)c2)CC1`: the MIC was > 300 µM.

For `CC(=O)c1ccc(NC(=O)CCc2cccs2)nc1`, the MIC is > 300 µM.

Turning to `COc1ccc(CNCCCSc2nnnn2C)cc1`, the MIC was > 300 µM.

With `NC1CSCc2c(F)cccc21` (stereo not drawn), the MIC is > 300 µM.

Molecule `Ic1nnnn1-c1ccccc1` came in with an MIC of 60 µM (≈ 16.3 µg/mL).

Regarding `OC[C@@H]1CCCN1Cc1ccc(F)c2cccnc12`, the MIC is > 300 µM.

As to `CCS(=O)(=O)NCC(N)c1ccc(C(C)C)cc1` (stereo not drawn), the MIC is > 300 µM.

Take `CCC(C)(C)NC(=O)c1nnn(-c2ccccc2)c1C`: the MIC is > 300 µM.

For `O=C(NC[C@H]1CCCN1)c1ccc2cccc(Cl)c2n1`, the MIC is > 300 µM.

Turning to `N[C@@H]1CCCc2c(F)cc(F)cc21`, the MIC was > 300 µM.

In the case of `NCC1Cc2ccccc21` (stereo not drawn), the MIC is > 300 µM.

For `Cc1cccc(OCCc2noc(C3CNC3)n2)c1`, the MIC was > 300 µM.

Regarding `CCCNc1nc(C)c(C(C)=O)s1`, the MIC was > 300 µM.

Consider `CCOc1ccc(Cl)cc1CCNS(=O)(=O)N(C)C`, for which the MIC is > 300 µM.

Turning to `Fc1cccnc1OC1CCNCC1`, the MIC was > 300 µM.

For `NCCc1cccc2cc[nH]c12`, the MIC was > 300 µM.

For `Cc1ocnc1C(=O)Nc1ccc2c(c1)NCCC2`, the MIC was > 300 µM.

As for `Cc1ccc(C)c2c(=O)cc(CN3CCC(N)C3)[nH]c12` (stereo not drawn), the MIC is > 300 µM.

Source of the values: ChEMBL document CHEMBL4513160, “CO-ADD screening of MMV (CH) - Small Polar Library”.
